# Measured values published in patent publication EP0103830A2, “Phenylethylemine derivatires as growth stimulators” (priority 1982, dated 1984).
# Where a name gives a salt, the structure may show the parent alone.
# Experiments:
# Type in all cases: in vivo
# [1] = Feeding trial in rats over 15 days (Beispiel 7), results relative to control; conditions: 25 ppm in feed, 15 Tage, Ratten weiblich SPF-Wistar; Kontrolle = 100 %
# Text: (§1) Vor Beginn des Fütterungsversuches wurden die Ratten zwei Tage lang an die neuen Haltungsbedingungen adaptiert, wobei generell das Versuchsfutter ohne Wirkstoffzusatz verabreicht wurde. Am dritten Versuchstag wurden die Tiere randomisiert und anschließend die Versuchsgruppen so gebildet, daß sowohl die Mittelwerte als auch die Streuungen in den Körpergewichten zwischen den Gruppen gleich waren.
# Der Fütterungsversuch, in dem die Futteraufnahme, der Körpergewichtszuwachs und die Futterverwertung individuell bestimmt wurden, erstreckte sich über 15 Tage.
# Als Wirkstoffe wurden dem Futter untergemischt: • 1-(3,4-Dihydroxyphenyl)-2-[1-methyl-2-(3,4-methylendioxyphenyl)ethylamino]ethanolhydrochlorid (= Verbindung I), • 2-Amino-1-(3-hydroxyphenyl)ethanolhydrochlorid (= Verbindung II), • 2-Amino-1-(3-hydroxyphenyl)propanolh^ydrogentartrat (= Verbindung III), • 1-(4-Hydroxyphenyl)-2-(1-methyl-3-phenylpropylamino)-propanolhydrochlorid (= Verbindung IV), • 2-Ethylamino-1-(3-hydroxyphenyl)ethanolhydrochlorid (= Verbindung V), • 1- (3,5-Dihydroxyphenyl) -2- (3-phenylpropylamino) propanol als Salz der 4-Aminobenzoesäure (= Verbindung VI), • 1-(3-Hydroxyphenyl)-2-(1,1-dimethyl-2-phenylethylamino)-ethanol als Salz der 4-Aminobenzoesäure (= Verbindung VII), • 5-[2-[1,1-Dimethylethyl)amino]-1-hydroxyethyl]-2-hydroxy- benzamid . HCl (= Verbindung VIII)
# Ratten, weiblich, SPF-Wistar 36 Tiere/Versuch Gewicht: 90 bis 150 g Futter: Haltungsdiät für Ratten mit folgender Zusammensetzung: […]
# [2] = Feeding trial (Beispiel 2): feed intake, weight gain, feed conversion; conditions: 0,2 ppm in feed, whole trial period (12 Tage)
# Text: as §1, with “Die Tiere” for “Vor Beginn des Fütterungsversuches”, “2” for “die Ratten zwei”, “Tage” for “Tage lang”, “waren. Nach einer 5-tägigen Vorperiode wurde eine 7-tägige Hauptperiode durchgeführt, in denen Futteraufnahme, Zuwachs und Futterverwertung bestimmt wurden.” for “waren.”
# Es wurden folgende Behandlungen geprüft: • b 1) Negativkontrolle (n = 24) • b 2) 0,2 ppm (Wirkstoff Herstellungsbeispiel 1)
# [3] = Feeding trial (Beispiel 3): feed intake, weight gain, feed conversion; conditions: 25 ppm in feed, n = 6, whole trial period (13 Tage)
# Text: as §1, with “Die Tiere” for “Vor Beginn des Fütterungsversuches”, “2” for “die Ratten zwei”, “Tage” for “Tage lang”, “waren. Nach einer 5-tägigen Vorperiode wurde eine 8-tägige Hauptperiode durchgeführt, in denen Futteraufnahme, Zuwachs und Futterverwertung bestimmt wurden.” for “waren.”
# (§2) Es wurden folgende Behandlungen geprüft: • b 1) Negativkontrolle (n = 12) • b 2) 25 ppm (Wirkstoff Herstellungsbeispiel 1) (n = 6)
# [4] = Feeding trial (Beispiel 1): feed intake, weight gain, feed conversion; conditions: 25 ppm in feed, n = 6, whole trial period (13 Tage), Ratten weiblich SPF Wistar
# Text: as §1, with “Die Tiere” for “Vor Beginn des Fütterungsversuches”, “2” for “die Ratten zwei”, “Tage” for “Tage lang”, “waren. Nach einer 5-tägigen Vorperiode wurde eine 8-tägige Hauptperiode durchgeführt, in denen Futteraufnahme, Zuwachs und Futterverwertung bestimmt wurden.” for “waren.”
# as §2
# [5] = Feeding trial (Beispiel 6): feed intake, weight gain, feed conversion; conditions: 25 ppm in feed, n = 6, whole trial period (13 Tage)
# Text: as §1, with “Die Tiere” for “Vor Beginn des Fütterungsversuches”, “2” for “die Ratten zwei”, “Tage” for “Tage lang”, “waren. Nach einer 5-tägigen Vorperiode wurde eine 8-tägige Hauptperiode durchgeführt, in denen Futteraufnahme, Zuwachs und Futterverwertung bestimmt wurden.” for “waren.”
# (§3) Es wurden folgende Behandlungen geprüft: • b 1) Negativkontrolle (n = 12) • b 2) 25 ppm (Wirkstoff Herstellungsbeispiel 2) (n = 6)
# [6] = Feeding trial (Beispiel 5): feed intake, weight gain, feed conversion; conditions: 25 ppm in feed, n = 6, whole trial period (13 Tage)
# Text: as §1, with “Die Tiere” for “Vor Beginn des Fütterungsversuches”, “2” for “die Ratten zwei”, “Tage” for “Tage lang”, “waren. Nach einer 5-tägigen Vorperiode wurde eine 8-tägige Hauptperiode durchgeführt, in denen Futteraufnahme, Zuwachs und Futterverwertung bestimmt wurden.” for “waren.”
# as §3
# [7] = Feeding trial (Beispiel 4): feed intake, weight gain, feed conversion; conditions: 25 ppm in feed, n = 6, whole trial period (13 Tage)
# Text: as §1, with “Die Tiere” for “Vor Beginn des Fütterungsversuches”, “2” for “die Ratten zwei”, “Tage” for “Tage lang”, “waren. Nach einer 5-tägigen Vorperiode wurde eine 8-tägige Hauptperiode durchgeführt, in denen Futteraufnahme, Zuwachs und Futterverwertung bestimmt wurden.” for “waren.”
# as §3
structure (smiles),measurement,setting,value
"CC(N)C(O)c1cccc(O)c1 (stereo not drawn) [Verbindung III, 2-Amino-1-(3-hydroxyphenyl)propanolhydrogentartrat]",Futteraufnahme,[1],99%
same,Futterverwertung,[1],"96,1%"
same,Zuwachs,[1],103%
"CC(Cc1ccc2c(c1)OCO2)NCC(O)c1ccc(O)c(O)c1 (stereo not drawn) [Verbindung I, 1-(3,4-Dihydroxyphenyl)-2-[1-methyl-2-(3,4-methylendioxyphenyl)ethylamino]ethanolhydrochlorid]",Futteraufnahme,[1],104%
same,Futterverwertung,[1],"92,9%"
same,Zuwachs,[1],112%
"COc1ccc(C(O)CNC(C)(C)C)cc1 (stereo not drawn) [Herstellungsbeispiel 1, 2-t-Butylamino-1-(4-methoxyphenyl)-ethanol]",Futterverwertung,"[2]; Negativkontrolle 4,88","4,21 g/g"
same,Zuwachs,"[2]; Negativkontrolle 41,0","50,5 g"
same,Futteraufnahme,[2]; Negativkontrolle 200,213 g
same,Futterverwertung,"[3]; Negativkontrolle 5,04","4,41 g/g"
same,Zuwachs,"[3]; Negativkontrolle 37,0","42,4 g"
same,Futteraufnahme,[3]; Negativkontrolle 182,187 g
same,Futterverwertung,"[4]; Negativkontrolle 5,62","4,03 g/g"
same,Zuwachs,"[4]; Negativkontrolle 27,9","43,7 g"
same,Futteraufnahme,[4]; Negativkontrolle 153,175 g
"CCNCC(O)c1cccc(O)c1 (stereo not drawn) [Verbindung V, 2-Ethylamino-1-(3-hydroxyphenyl)ethanolhydrochlorid]",Futteraufnahme,[1],104%
same,Futterverwertung,[1],"90,4%"
same,Zuwachs,[1],115%
"CC(CCc1ccccc1)NC(C)C(O)c1ccc(O)cc1 (stereo not drawn) [Verbindung IV, 1-(4-Hydroxyphenyl)-2-(1-methyl-3-phenylpropylamino)-propanolhydrochlorid]",Futteraufnahme,[1],"101,7%"
same,Futterverwertung,[1],"96,9%"
same,Zuwachs,[1],105%
"CC(C)(C)NCC(O)c1ccc(O)c(C(N)=O)c1 (stereo not drawn) [Verbindung VIII, 5-[2-[(1,1-Dimethylethyl)amino]-1-hydroxyethyl]-2-hydroxy-benzamid . HC1]",Futteraufnahme,[1],106%
same,Futterverwertung,[1],"84,8%"
same,Zuwachs,[1],"125,0%"
"NCC(O)c1cccc(O)c1 (stereo not drawn) [Verbindung II, 2-Amino-1-(3-hydroxyphenyl)ethanolhydrochlorid]",Futteraufnahme,[1],98%
same,Futterverwertung,[1],"91,6%"
same,Zuwachs,[1],107%
CC(C)(C)NCC(O)c1cc(Br)c(O)c(Br)c1 (stereo not drawn) [Herstellungsbeispiel 2],Futterverwertung,"[5]; Negativkontrolle 5,04","4,36 g/g"
same,Zuwachs,"[5]; Negativkontrolle 37,0","43,2 g"
same,Futteraufnahme,[5]; Negativkontrolle 182,183 g
same,Futterverwertung,"[6]; Negativkontrolle 5,62","3,96 g/g"
same,Zuwachs,"[6]; Negativkontrolle 27,9","43,4 g"
same,Futteraufnahme,[6]; Negativkontrolle 152,171 g
same,Futterverwertung,"[7]; Negativkontrolle 4,75","4,41 g/g"
same,Zuwachs,"[7]; Negativkontrolle 41,3","45,1 g"
same,Futteraufnahme,[7]; Negativkontrolle 196,199 g
